Calls of active or inactive are those of the source. The rule behind the calls is not given here.
Legend:
[1] = biological target: Histone deacetylase 1 (Homo sapiens, UniProt Q13547); assay: Inhibition of HDAC1 (unknown origin) using Boc-Lys (acetyl)-AMC as substrate incubated for 10 mins followed by substrate addition measured after 30 mins by fluorescence assay
[2] = biological target: Histone deacetylase 2 (Homo sapiens, UniProt Q92769); assay: Inhibition of HDAC2 (unknown origin) using Boc-Lys (acetyl)-AMC as substrate incubated for 10 mins followed by substrate addition measured after 30 mins by fluorescence assay
[3] = biological target: Histone deacetylase 3 (Homo sapiens, UniProt O15379); assay: Inhibition of HDAC3 (unknown origin) using Boc-Lys (acetyl)-AMC as substrate incubated for 10 mins followed by substrate addition measured after 30 mins by fluorescence assay
[4] = Inhibition of class 1 HDAC in human HL60 cells using Boc-Ac-Lys-AMC as substrate incubated for 3 hrs followed by substrate addition measured after 3 hrs by fluorescence assay; format: cell-based; conditions: HL-60, 3 h
[5] = test system: HL-60; assay: cells; conditions: Homo sapiens, HL-60, 48 h
Description: Antiproliferative activity against human HL60 cells after 48 hrs by MTT assay

[6] = test system: HEL; assay: Antiproliferative activity against HEL cells after 48 hrs by MTT assay; format: functional, cell-based; conditions: Homo sapiens
[7] = test system: U-266; assay: Antiproliferative activity against human U266 cells after 48 hrs by MTT assay; format: functional, cell-based; conditions: U-266, 48 h
[8] = test system: U-937; assay: cells; conditions: Homo sapiens, U-937, 48 h
Description: Antiproliferative activity against human U937 cells after 48 hrs by MTT assay

[9] = test system: HCT-116; assay: cells; conditions: Homo sapiens, HCT-116, 48 h
[10] = cells; conditions: Homo sapiens, ES-2, 48 h
Description: Antiproliferative activity against human ES2 cells after 48 hrs by MTT assay

[11] = biological target: T1, Histone deacetylase (HDAC1 and HDAC2) (Homo sapiens) (UniProt Q13547+Q92769); assay: Inhibition of HDAC1/2 in human HL60 cells assessed as increase in acetylated histone H3 level at 1 to 5 uM after 48 hrs by Western blot analysis; format: cell-based
[12] = biological target: T1, Histone deacetylase (HDAC1 and HDAC2) (Homo sapiens); assay: Inhibition of HDAC1/2 in human HL60 cells assessed as increase in acetylated histone H4 level at 1 to 5 uM after 48 hrs by Western blot analysis; format: cell-based
[13] = test system: HL-60; assay: Induction of apoptosis in human HL60 cells assessed as decrease in procaspase-3 level at 1 to 5 uM after 48 hrs by Western blot analysis; format: functional, cell-based
[14] = test system: HL-60; assay: Induction of apoptosis in human HL60 cells assessed as increase in cleaved caspase-3 level at 1 to 5 uM after 48 hrs by Western blot analysis; format: functional, cell-based
[15] = test system: HL-60; assay: Induction of apoptosis in human HL60 cells assessed as increase in cleaved PARP level at 1 to 5 uM after 48 hrs by Western blot analysis; format: functional, cell-based
[16] = test system: K562; assay: cells; conditions: Homo sapiens, K562, 48 h
[17] = test system: Mus musculus; assay: Toxicity in BALB/c nude mouse xenografted with human HCT116 cells assessed as body weight at 100 mg/kg/day administered via oral gavage for 16 days (reference value: 19.91 +/- 1.26 g); format: organism-based; conditions: in vivo, 384 h
[18] = test system: U-937; assay: Antitumor activity against human U937 cells xenografted in BALB/c nude mouse assessed as tumor growth inhibition at 100 mg/kg/day administered via oral gavage for 13 days measured every 3 days; format: functional; conditions: U-937, po, read-out: TGI
[19] = test system: Mus musculus; assay: Toxicity in BALB/c nude mouse xenografted with human U937 cells assessed as body weight at 100 mg/kg/day administered via oral gavage for 13 days (reference value: 25.39 +/- 1.18 g); format: organism-based; conditions: in vivo, 312 h
[20] = test system: HCT-116; assay: Antitumor activity against human HCT116 cells xenografted in BALB/c nude mouse assessed as tumor growth inhibition at 100 mg/kg/day administered via oral gavage for 16 days measured every 3 days; format: functional; conditions: HCT-116, po, read-out: TGI
[21] = test system: HCT-116; assay: Antitumor activity against human HCT116 cells xenografted in BALB/c nude mouse assessed as relative tumor increment ratio at 100 mg/kg/day administered via oral gavage for 16 days measured every 3 days; format: functional
[22] = biological target: T2, Histone deacetylase 8 (Homo sapiens, UniProt Q9BY41); assay: Inhibition of HDAC8 (unknown origin) using Boc-Lys (acetyl)-AMC as substrate incubated for 10 mins followed by substrate addition measured after 30 mins by fluorescence assay
T2 sequence (Q9BY41 whole entry): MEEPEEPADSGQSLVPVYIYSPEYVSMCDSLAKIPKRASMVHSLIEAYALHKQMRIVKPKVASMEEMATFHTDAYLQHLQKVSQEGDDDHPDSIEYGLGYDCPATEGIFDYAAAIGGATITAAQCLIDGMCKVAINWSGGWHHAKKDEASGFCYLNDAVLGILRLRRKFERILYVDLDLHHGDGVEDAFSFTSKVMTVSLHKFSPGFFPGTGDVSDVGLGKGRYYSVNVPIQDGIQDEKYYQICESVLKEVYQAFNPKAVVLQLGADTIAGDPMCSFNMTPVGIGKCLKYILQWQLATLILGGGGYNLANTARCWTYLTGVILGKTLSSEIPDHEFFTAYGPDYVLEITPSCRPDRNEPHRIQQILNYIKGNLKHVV

[23] = biological target: Histone deacetylase 4 (Homo sapiens, UniProt P56524); assay: Inhibition of HDAC4 (unknown origin) using Boc-Lys (triflouroacetyl)-AMC as substrate incubated for 10 mins followed by substrate addition measured after 30 mins by fluorescence assay
[24] = biological target: T3, Protein deacetylase HDAC6 (Homo sapiens, UniProt Q9UBN7); assay: Inhibition of HDAC6 (unknown origin) using Boc-Lys (acetyl)-AMC as substrate incubated for 10 mins followed by substrate addition measured after 30 mins by fluorescence assay
T3 sequence (Q9UBN7 whole entry): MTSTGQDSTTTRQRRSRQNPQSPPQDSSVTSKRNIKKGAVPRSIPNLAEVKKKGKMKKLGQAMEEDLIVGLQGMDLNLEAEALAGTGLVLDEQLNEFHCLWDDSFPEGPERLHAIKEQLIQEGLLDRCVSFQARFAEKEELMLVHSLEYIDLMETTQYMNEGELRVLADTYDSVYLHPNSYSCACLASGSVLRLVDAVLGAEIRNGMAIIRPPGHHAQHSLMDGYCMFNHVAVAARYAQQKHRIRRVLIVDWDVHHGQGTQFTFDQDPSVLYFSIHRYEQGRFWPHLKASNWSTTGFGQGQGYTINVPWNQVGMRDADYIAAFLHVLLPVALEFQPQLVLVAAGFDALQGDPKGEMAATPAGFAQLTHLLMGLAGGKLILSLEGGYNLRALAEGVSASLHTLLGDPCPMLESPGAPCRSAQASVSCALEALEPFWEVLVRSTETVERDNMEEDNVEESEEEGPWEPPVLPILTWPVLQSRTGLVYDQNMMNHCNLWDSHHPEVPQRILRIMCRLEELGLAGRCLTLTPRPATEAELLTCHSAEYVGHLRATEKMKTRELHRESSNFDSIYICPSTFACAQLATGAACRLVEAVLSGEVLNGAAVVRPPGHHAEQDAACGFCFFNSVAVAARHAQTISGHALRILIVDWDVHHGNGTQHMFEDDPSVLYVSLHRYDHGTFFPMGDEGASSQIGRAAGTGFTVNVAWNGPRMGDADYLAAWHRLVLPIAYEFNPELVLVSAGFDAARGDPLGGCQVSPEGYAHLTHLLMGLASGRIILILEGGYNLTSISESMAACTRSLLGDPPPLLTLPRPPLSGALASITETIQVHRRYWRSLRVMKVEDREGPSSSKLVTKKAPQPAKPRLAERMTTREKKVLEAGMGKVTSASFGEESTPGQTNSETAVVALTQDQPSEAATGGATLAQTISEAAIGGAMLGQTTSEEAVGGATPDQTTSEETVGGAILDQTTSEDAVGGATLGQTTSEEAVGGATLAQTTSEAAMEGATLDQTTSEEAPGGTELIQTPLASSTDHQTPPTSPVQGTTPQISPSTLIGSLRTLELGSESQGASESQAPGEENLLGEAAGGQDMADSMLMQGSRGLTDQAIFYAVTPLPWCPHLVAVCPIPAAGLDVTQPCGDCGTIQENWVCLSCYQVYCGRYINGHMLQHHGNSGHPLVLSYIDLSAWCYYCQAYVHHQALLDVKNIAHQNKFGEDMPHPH

Chain of Histone deacetylase 2 (Q92769 whole entry): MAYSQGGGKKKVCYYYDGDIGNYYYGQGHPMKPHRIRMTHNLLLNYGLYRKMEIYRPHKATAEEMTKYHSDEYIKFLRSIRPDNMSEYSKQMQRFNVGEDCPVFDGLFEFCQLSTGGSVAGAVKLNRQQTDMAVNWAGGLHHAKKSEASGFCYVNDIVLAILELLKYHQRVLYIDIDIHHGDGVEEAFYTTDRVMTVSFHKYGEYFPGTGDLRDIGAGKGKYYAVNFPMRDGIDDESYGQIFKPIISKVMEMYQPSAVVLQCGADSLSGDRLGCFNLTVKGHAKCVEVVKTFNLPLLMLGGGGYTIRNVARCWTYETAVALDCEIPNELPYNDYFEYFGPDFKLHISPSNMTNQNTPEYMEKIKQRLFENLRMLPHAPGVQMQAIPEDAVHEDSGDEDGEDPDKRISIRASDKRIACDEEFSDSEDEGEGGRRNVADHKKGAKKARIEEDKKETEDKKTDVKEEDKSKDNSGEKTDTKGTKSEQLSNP
Chain of Histone deacetylase 3 (O15379 whole entry): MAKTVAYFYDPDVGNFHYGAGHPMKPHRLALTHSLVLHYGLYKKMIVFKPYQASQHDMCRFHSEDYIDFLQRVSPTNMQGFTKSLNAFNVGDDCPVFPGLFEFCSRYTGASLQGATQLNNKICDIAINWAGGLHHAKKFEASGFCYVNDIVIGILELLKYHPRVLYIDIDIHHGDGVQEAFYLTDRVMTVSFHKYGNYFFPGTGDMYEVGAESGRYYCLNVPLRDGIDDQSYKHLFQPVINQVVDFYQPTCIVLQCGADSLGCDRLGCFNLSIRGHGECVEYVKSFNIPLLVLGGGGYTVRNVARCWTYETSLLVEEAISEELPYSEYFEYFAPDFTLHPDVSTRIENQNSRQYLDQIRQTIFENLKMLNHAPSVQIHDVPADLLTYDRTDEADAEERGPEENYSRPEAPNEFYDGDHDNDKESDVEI
Chain of Histone deacetylase 1 (Q13547 whole entry): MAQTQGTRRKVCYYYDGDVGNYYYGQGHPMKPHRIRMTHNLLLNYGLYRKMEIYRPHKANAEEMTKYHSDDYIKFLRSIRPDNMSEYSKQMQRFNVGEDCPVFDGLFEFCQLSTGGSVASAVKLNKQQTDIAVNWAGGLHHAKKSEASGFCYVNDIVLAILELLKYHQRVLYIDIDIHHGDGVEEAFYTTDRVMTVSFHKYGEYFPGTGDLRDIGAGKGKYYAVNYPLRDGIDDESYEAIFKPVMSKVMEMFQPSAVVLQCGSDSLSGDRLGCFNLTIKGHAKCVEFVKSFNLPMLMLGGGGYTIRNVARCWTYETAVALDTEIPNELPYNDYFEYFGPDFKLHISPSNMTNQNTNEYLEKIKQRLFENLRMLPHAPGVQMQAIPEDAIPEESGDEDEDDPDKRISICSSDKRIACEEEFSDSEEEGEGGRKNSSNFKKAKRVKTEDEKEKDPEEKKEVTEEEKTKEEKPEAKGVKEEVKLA
T1 sequence (Q13547 whole entry, looked up): as the sequence (Q13547 whole entry) above
T1 sequence (Q92769 whole entry, looked up): as the sequence (Q92769 whole entry) above
Chain of Histone deacetylase 4 (P56524 whole entry): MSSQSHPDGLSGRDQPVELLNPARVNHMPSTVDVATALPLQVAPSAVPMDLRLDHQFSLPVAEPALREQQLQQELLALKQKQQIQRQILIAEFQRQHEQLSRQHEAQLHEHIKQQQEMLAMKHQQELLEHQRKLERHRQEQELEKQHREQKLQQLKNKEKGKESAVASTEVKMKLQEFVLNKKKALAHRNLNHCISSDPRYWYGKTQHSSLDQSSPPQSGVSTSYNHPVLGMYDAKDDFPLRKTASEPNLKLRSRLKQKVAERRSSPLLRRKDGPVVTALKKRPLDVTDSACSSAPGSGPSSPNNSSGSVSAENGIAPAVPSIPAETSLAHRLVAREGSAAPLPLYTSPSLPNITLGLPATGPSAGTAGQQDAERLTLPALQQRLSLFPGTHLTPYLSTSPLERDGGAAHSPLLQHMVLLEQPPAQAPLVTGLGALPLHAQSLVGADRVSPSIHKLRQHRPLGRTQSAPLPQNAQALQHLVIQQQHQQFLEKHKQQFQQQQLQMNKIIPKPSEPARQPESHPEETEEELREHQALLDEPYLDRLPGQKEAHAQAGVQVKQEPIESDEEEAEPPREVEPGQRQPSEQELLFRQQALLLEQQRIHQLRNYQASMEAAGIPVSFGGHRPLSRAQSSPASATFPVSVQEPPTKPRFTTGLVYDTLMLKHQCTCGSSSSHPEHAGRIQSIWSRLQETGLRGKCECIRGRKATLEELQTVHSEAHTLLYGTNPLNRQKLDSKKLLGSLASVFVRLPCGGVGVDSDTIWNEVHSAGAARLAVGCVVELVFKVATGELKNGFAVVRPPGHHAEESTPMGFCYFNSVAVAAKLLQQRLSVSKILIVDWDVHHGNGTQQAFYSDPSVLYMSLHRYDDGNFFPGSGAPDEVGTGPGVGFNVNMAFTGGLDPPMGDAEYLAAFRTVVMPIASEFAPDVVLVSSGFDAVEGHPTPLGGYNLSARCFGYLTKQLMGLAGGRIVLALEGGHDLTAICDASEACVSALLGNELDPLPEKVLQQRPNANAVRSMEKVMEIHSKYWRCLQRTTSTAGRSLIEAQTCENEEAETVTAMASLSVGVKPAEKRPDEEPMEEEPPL

Compound	IC50 [4] [nM]	IC50 [5] [nM]	IC50 [1] [nM]	IC50 [2] [nM]	IC50 [3] [nM]	further results
COc1ccc(C(=O)N[C@@H](Cc2c[nH]c3ccccc23)C(=O)Nc2ccc(C(=O)Nc3cc(-c4cccs4)ccc3N)cc2)cc1	–	–	36.5	314	62500	–
COc1ccc(C(=O)N[C@@H](Cc2c[nH]c3ccccc23)C(=O)NCCCCCC(=O)Nc2ccccc2N)cc1	–	–	58.6	296	42.9	–
COc1ccc(C(=O)N[C@@H](Cc2c[nH]c3ccccc23)C(=O)NCc2ccc(C(=O)Nc3ccc(F)cc3N)cc2)cc1	–	–	171	179	243	–
COc1ccc(C(=O)N[C@H](COc2ccc(C(=O)Nc3ccccc3N)cc2)Cc2c[nH]c3ccccc23)cc1	–	–	14.7	111	90	–
Nc1ccccc1NC(=O)c1ccc(CNC(=O)[C@H](Cc2c[nH]c3ccccc23)NC(=O)c2cnccn2)cc1	1020	5850	–	–	–	–
COc1ccc(C(=O)N[C@@H](Cc2c[nH]c3ccccc23)C(=O)NCc2ccc(C(=O)Nc3cc(-c4cccs4)ccc3N)cc2)cc1	–	–	58.8	320	8010	IC50 [6]: > 20000 nM; IC50 [7]: > 20000 nM; IC50 [8]: > 20000 nM; IC50 [9]: > 20000 nM; IC50 [10]: > 20000 nM
Nc1ccccc1NC(=O)c1ccc(CNC(=O)[C@H](Cc2c[nH]c3ccccc23)NC(=O)c2ccco2)cc1	910	2400	–	–	–	–
COc1ccc(C(=O)N[C@@H](Cc2c[nH]c3ccccc23)C(=O)NCc2ccc(C(=O)Nc3cc(-c4ccccc4)ccc3N)cc2)cc1	–	–	58.4	311	30900	IC50 [6]: > 20000 nM; IC50 [7]: > 20000 nM; inhibition [11]: Active; inhibition [12]: Active; Activity [13]: inactive; Activity [14]: inactive; Activity [15]: inactive; IC50 [16]: 14000 nM; IC50 [8]: > 20000 nM; IC50 [9]: > 20000 nM; IC50 [10]: > 20000 nM
COc1ccc(C(=O)N[C@H](CNCc2ccc(C(=O)Nc3ccccc3N)cc2)Cc2c[nH]c3ccccc23)cc1	–	–	29.9	21.2	223	–
COc1ccc(C(=O)N[C@@H](Cc2c[nH]c3ccccc23)C(=O)NCc2ccc(C(=O)Nc3ccccc3N)cc2)cc1	–	–	20.6	157	138	Activity [17]: 21.59 g; inhibition in vivo at 100 mg/kg/day [18]: 51%; Activity [19]: 25.04 g; inhibition in vivo at 100 mg/kg/day [20]: 49%; T/C [21]: 59%; inhibition [11]: Active; inhibition [12]: Active; Activity [13]: Active; Activity [14]: Active; Activity [15]: Active; IC50 [10]: > 20000 nM
COc1ccc(C(=O)N[C@@H](Cc2c[nH]c3ccccc23)C(=O)NCCCCCC(=O)Nc2cc(-c3cccs3)ccc2N)cc1	–	–	48	337	3570	IC50 [22]: > 100000 nM; IC50 [23]: > 100000 nM; IC50 [24]: > 100000 nM; IC50 [7]: > 20000 nM; IC50 [8]: > 20000 nM; IC50 [9]: > 20000 nM; IC50 [10]: > 20000 nM
COc1ccc(C(=O)N[C@@H](Cc2c[nH]c3ccccc23)C(=O)NCCCCCC(=O)Nc2ccc(F)cc2N)cc1	–	–	511	908	110	IC50 [22]: > 100000 nM; IC50 [23]: > 100000 nM; IC50 [24]: > 100000 nM
COc1ccc(C(=O)N[C@@H](Cc2c[nH]c3ccccc23)C(=O)Nc2ccc(C(=O)Nc3ccccc3N)cc2)cc1	850	2140	49.6	441	227	–
COc1ccc(C(=O)N[C@@H](Cc2c[nH]c3ccccc23)C(=O)NCCCCCC(=O)Nc2cc(-c3ccccc3)ccc2N)cc1	–	–	55.5	490	5630	IC50 [7]: > 20000 nM; IC50 [8]: > 20000 nM; IC50 [9]: > 20000 nM; IC50 [10]: > 20000 nM
O=C(CCCCCCC(=O)Nc1ccccc1)NO [VORINOSTAT]	–	–	–	–	–	Activity [17]: 21.23 g
Nc1ccccc1NC(=O)c1ccc(CNC(=O)[C@H](Cc2c[nH]c3ccccc23)NC(=O)c2ccccn2)cc1	1610	6090	–	–	–	–
COc1ccc(C(=O)N[C@H](COc2ccc(/C=C/C(=O)Nc3ccccc3N)cc2)Cc2c[nH]c3ccccc23)cc1	–	–	284	217	261	–
COc1ccc(C(=O)N[C@@H](Cc2c[nH]c3ccccc23)C(=O)Nc2ccc(C(=O)Nc3ccc(F)cc3N)cc2)cc1	–	–	91.7	121	167	–

Continued, in another order:

IC50 [4] [nM]	IC50 [5] [nM]	Compound	IC50 [1] [nM]	IC50 [2] [nM]	IC50 [3] [nM]	further results
780	1740	Nc1ccccc1NC(=O)c1ccc(CNC(=O)[C@H](Cc2c[nH]c3ccccc23)NC(=O)c2cccs2)cc1	–	–	–	–
> 10000	> 20000	COc1ccc(C(=O)N[C@H](COc2ccc(CC(=O)Nc3ccccc3N)cc2)Cc2c[nH]c3ccccc23)cc1	> 20000	> 20000	> 20000	–
1510	2380	CN(C)c1ccc(C(=O)N[C@@H](Cc2c[nH]c3ccccc23)C(=O)NCc2ccc(C(=O)Nc3ccccc3N)cc2)cc1	–	–	–	–
1980	3090	Nc1ccccc1NC(=O)c1ccc(CNC(=O)[C@H](Cc2c[nH]c3ccccc23)NC(=O)c2ccc(C(F)(F)F)cc2)cc1	–	–	–	–

From ChEMBL document CHEMBL4020724, “Selective HDAC inhibitors with potent oral activity against leukemia and colorectal cancer: Design, structure-activity relationship and anti-tumor activity study” (Eur J Med Chem, 2017)
